# Laboratory results from PMC4232510, “Identification of Functionally Important Residues of the Rat P2X4 Receptor by Alanine Scanning Mutagenesis of the Dorsal Fin and Left Flipper Domains” (PLoS ONE, 2014).
# Numbering of substitutions follows the chain as printed.
# Legend:
# rP2X4R N204A mutant = biological target: T1, rP2X4R N204A mutant (Rattus norvegicus, UniProt P51577, N204A); format: cell-based
# T1 construct: expressed in transfected cells; host or cells: HEK293T
# Method: To express the recombinant channels, we used human embryonic kidney (HEK) 293T cells (American Type Culture Collection, Rockville, MD, USA) grown in Dulbecco modified Eagle’s medium (Thermo Fisher Scientific, Waltham, MA) supplemented with 10% fetal bovine serum (Sigma-Aldrich, St Louis, MO), 50 U/ml penicillin and 50 µg/ml streptomycin (both Thermo Fisher Scientific, Waltham, MA) in a humidified 5% CO2 and 95% air at 37°C. Cells were cultured in 75 cm^2 plastic culture flasks (NUNC, Rochester, NY) for 36–72 hours until reaching 80–95% confluence. Before the day of transfection, the cells were plated on 35 mm culture dishes (Sarstedt, Newton, NC) and incubated at 37°C for at least 24 h. […] Transfected cells were identified by the fluorescence signal of EGFP using the Olympus IX71 inverted research microscope with fluorescence illuminators (Model IX71; Olympus, Melville, NY). […]
# ATP-induced currents were recorded from whole cells clamped to −60 mV using an Axopatch 200B patch-clamp amplifier (Axon Instruments, Union City, CA). […] Potency of ATP was measured based on the activation of naïve (not previously stimulated) receptors using a short (2–5 s) application of various concentrations of ATP. […] One or two responses were recorded from one cell, if not otherwise stated, and responses from different cells were pooled. […]
# rP2X4R I209A mutant = biological target: T2, rP2X4R I209A mutant (Rattus norvegicus, UniProt P51577, I209A); experiment: whole-cell patch clamp, HEK293T cells expressing mutant; format: cell-based
# T2 construct: expressed in transfected cells; host or cells: HEK293T
# T2 sequence (P51577 1-388 I209A): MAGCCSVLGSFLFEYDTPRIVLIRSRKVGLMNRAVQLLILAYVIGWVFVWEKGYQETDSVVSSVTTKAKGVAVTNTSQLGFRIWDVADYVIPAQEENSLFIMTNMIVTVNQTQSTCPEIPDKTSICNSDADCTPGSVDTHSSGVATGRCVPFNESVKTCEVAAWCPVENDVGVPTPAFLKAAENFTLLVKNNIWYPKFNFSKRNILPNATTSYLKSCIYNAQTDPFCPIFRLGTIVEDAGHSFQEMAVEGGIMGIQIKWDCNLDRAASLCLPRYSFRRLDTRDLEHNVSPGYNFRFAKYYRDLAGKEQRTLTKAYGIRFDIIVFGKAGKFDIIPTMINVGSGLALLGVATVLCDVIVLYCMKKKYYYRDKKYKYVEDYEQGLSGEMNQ
# rP2X4R N293A mutant = biological target: T3, rP2X4R N293A mutant (Rattus norvegicus, UniProt P51577, N293A); experiment: as above; format: cell-based
# T3 construct: expressed in transfected cells; host or cells: HEK293T
# T3 sequence (P51577 whole entry N293A): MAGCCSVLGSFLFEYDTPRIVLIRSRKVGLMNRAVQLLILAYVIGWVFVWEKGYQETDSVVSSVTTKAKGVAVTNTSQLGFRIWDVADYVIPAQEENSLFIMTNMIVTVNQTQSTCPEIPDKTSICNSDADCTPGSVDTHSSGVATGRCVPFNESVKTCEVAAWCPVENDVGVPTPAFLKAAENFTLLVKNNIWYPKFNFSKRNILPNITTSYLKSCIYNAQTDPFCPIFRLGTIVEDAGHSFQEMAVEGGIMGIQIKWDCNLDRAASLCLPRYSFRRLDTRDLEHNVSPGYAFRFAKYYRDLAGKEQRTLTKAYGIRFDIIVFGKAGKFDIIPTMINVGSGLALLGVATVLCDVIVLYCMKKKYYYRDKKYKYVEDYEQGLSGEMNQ
# rP2X4R V288A mutant = biological target: T4, rP2X4R V288A mutant (Rattus norvegicus, UniProt P51577, V288A); experiment: as above; format: cell-based
# T4 construct: expressed in transfected cells; host or cells: HEK293T
# T4 sequence (P51577 1-388 V288A): T2 sequence (P51577 1-388 I209A) with A209I, V288A
# P2X1R P287C = system: P2X1R P287C; parameters: method as in PMID 17428985; key: n.f.: non-functional mutants; ↑: mutant with significant increased EC50 in comparison to WT (values represent fold increase); ≈: close to WT receptor; D: affected time-constant of the desensitizing current response; conditions: cited from earlier work
# [1] = decay after removal of 1 or 3 µM ATP, 3 µM IVM
# [2] = 100 µM ATP 60 s, biexponential fit
# [3] = contribution of τdes2, 100 µM ATP 60 s
# [4] = naïve receptors, 2–5 s application
# [5] = 3 µM IVM 4-6 min vs IVM-untreated
# T1 sequence (P51577 whole entry N204A): as the sequence (P51577 whole entry N293A) above, with N204A, A293N counted along it
compound,measurement,setting,value
Nc1ncnc2c1ncn2[C@@H]1O[C@H](COP(=O)(O)OP(=O)(O)OP(=O)(O)O)[C@@H](O)[C@H]1O [ATP],Imax+IVM,rP2X4R N204A mutant; ATP after 3 µM IVM 4-6 min,2.5 ± 0.4 nA
same,τoff +IVM,rP2X4R N204A mutant; [1],5.2 ± 0.6 s
same,τdes1,rP2X4R I209A mutant; [2],2.1 ± 0.8 s
same,τdes2,rP2X4R I209A mutant; [2],9.3 ± 2.6 s
same,Imax,rP2X4R I209A mutant; 100–1000 µM ATP,1.9 ± 0.4 nA
same,Imax+IVM,rP2X4R I209A mutant; ATP after 3 µM IVM 4-6 min,4.1 ± 0.8 nA
same,A2 /(A1+A2),rP2X4R I209A mutant; [3],70 ± 2%
same,τoff +IVM,rP2X4R I209A mutant; [1],22 ± 3.0 s
same,EC50,rP2X4R I209A mutant; [4],4.3 ± 2.1 µM
same,τdes,"rP2X4R I209A mutant; weighted, 100 µM ATP 60 s",6.3 ± 0.2 s
same,Imax+IVM,rP2X4R N293A mutant; ATP after 3 µM IVM 4-6 min,2.0 ±0.5 nA
same,τoff +IVM,rP2X4R N293A mutant; [1],2.8 ± 0.2 s
same,τdes1,rP2X4R V288A mutant; [2],1.7 ± 0.3 s
same,τdes2,rP2X4R V288A mutant; [2],9.3 ± 1.7 s
same,Imax,rP2X4R V288A mutant; 100–1000 µM ATP,1.3 ± 0.2 nA
same,Imax+IVM,rP2X4R V288A mutant; ATP after 3 µM IVM 4-6 min,3.0 ± 0.7 nA
same,A2 /(A1+A2),rP2X4R V288A mutant; [3],72 ± 8%
same,τoff +IVM,rP2X4R V288A mutant; [1],19 ± 2.0 s
same,EC50,rP2X4R V288A mutant; [4],5.7 ± 3.1 µM
same,τdes,"rP2X4R V288A mutant; weighted, 100 µM ATP 60 s",7.5 ± 1.6 s
same,change in EC50 for ATP,P2X1R P287C,P287C: ≈[9]
"CC[C@H](C)[C@H]1O[C@]2(CC[C@@H]1C)C[C@@H]1C[C@@H](C/C=C(\C)[C@@H](O[C@H]3C[C@H](OC)[C@@H](O[C@H]4C[C@H](OC)[C@@H](O)[C@H](C)O4)[C@H](C)O3)[C@@H](C)/C=C/C=C3\CO[C@@H]4[C@H](O)C(C)=C[C@@H](C(=O)O1)[C@]34O)O2 [IVM, ivermectin]",Fold incr. Imax,rP2X4R I209A mutant; [5],2.1 ± 0.3 fold
same,Fold incr. Imax,rP2X4R V288A mutant; [5],2.3 ± 0.3 fold
